Assay results taken from patent publication US8058261B2, “3′-ethynylcytidine derivative” (Taiho Pharmaceutical Co., Ltd., priority 2006, dated 2011).
Where a name gives a salt, the structure may show the parent alone.

Columns and labels:
[1] = Serum ECyd level after peroral administration; format: in vivo; details: perorally administered to Donryu male rats; compared with ECyd
Method: Separately, the compound of the present invention was perorally administered to Donryu male rats, and serum ECyd level was measured.

[2] = system: Yoshida Sarcoma cell line (rat ascites tumor); assay: Antitumor effect when perorally administered, Donryu rat subcutaneous tumor implantation system; format: in vivo, Donryu rats; details: perorally once a day for seven days at 12 μmol/kg/day; tumor weight seven days after grouping vs non-treatment group; ECyd equimolar
Method: Pharmacological Test Example 1 Antitumor Effect of the Compound of the Present Invention When Perorally Administered to Donryu Rat Subcutaneous Tumor Implantation System
Cells of a Yoshida Sarcoma cell line (rat ascites tumor) intraperitoneally subcultured in Donryu rats (Charles River Laboratories Japan, Inc.) were implanted subcutaneously to 5-week-old Donryu rats in the back thereof at 2×10^4 cells/0.2 mL. Four days after implantation, the body weight of each rat was measured, and the rats were grouped so that the average body weight was nearly equal between the groups (7 rats per group).
Each of the ECyd derivatives was dissolved or suspended in 0.5% hydroxypropylmethylcellulose solution, and the resultant solution or suspension was perorally administered to each rat every day from the day of grouping once a day for seven days at a dose of 12 μmol/kg/day. The ECyd derivative was evaluated three times. As a control in each test, ECyd was used in an equimolar amount as the ECyd derivative.
Seven days after the day of grouping, the tumor weight of the rat in the pharmaceutical agent administration group was measured. The tumor weight of the rat to which no pharmaceutical agent had been administered (non-treatment group) was also measured. The average tumor weight of each of the pharmaceutical agent administration group and the non-treatment group was calculated. Tumor growth inhibition rate (IR) was determined through use of the following equation, whereby antitumor effect was evaluated. IR(%)=[1−(TWtest)/(TWcont)]×100 (Equation 1) [wherein TWtest and TWcont represent the average tumor weight of the pharmaceutical agent administration group and the non-treatment group, respectively].

[3] = system: human tumor cells; details: intravenous 0.25 mg/kg for ten continuous days; gastric, colon, pancreatic, esophageal, bile duct, lung, breast, renal cancer strains; cited from earlier work

C#C[C@@]1(O)[C@@H](CO[Si](CC)(CC)CC)O[C@@H](n2ccc(N)nc2=O)[C@@H]1O
melting point: 202 to 204 °C

C#C[C@@]1(O)[C@@H](CO[Si](C(C)C)(C(C)C)C(C)C)O[C@@H](n2ccc(NC(=O)CN(C)C)nc2=O)[C@@H]1O [Compound 18, 1-[5-O-(Triisopropylsilyl)-3-C-ethynyl-β-ribofuranosyl]-4-N-(N,N-dimethylglycyl)cytosine]
serum ECyd level (concentration in blood) [1]: particularly high concentration in blood
melting point: 146 to 148 °C

C#C[C@@]1(O)[C@@H](CO[Si](C)(C)c2ccccc2)O[C@@H](n2ccc(N)nc2=O)[C@@H]1O
melting point: 171 to 173 °C

C#C[C@@]1(O)[C@@H](CO[Si](C)(C)C(C)(C)C(C)C)O[C@@H](n2ccc(N)nc2=O)[C@@H]1O
melting point: > 197 °C (dec.)

C#C[C@@]1(O)[C@@H](CO[Si](C)(C)C(C)(C)C)O[C@@H](n2ccc(NC(=O)OC(C)(C)C)nc2=O)[C@@H]1O
melting point: 103 to 110 °C

C#C[C@@]1(O)[C@@H](CO)O[C@@H](n2ccc(N)nc2=O)[C@@H]1O[Si](C(C)C)(C(C)C)C(C)C [Compound 11, 1-(2-O-Triisopropylsilyl-3-C-ethynyl-1-β-D-ribofuranosyl)cytosine]
Tumor growth inhibition rate IR (%) [2]: 88.3%
serum ECyd level (concentration in blood) [1]: particularly high concentration in blood

C#C[C@@]1(O)[C@@H](CO[Si](C)(C)C(C)(C)C)O[C@@H](n2ccc(NC(=O)CN(C)C)nc2=O)[C@@H]1O [Compound 17, 1-[5-O-(tert-Butyldimethylsilyl)-3-C-ethynyl-β-D-ribofuranosyl]-4-N-(N,N-dimethylglycyl)cytosine]
serum ECyd level (concentration in blood) [1]: particularly high concentration in blood
melting point: 180 to 185 °C

C#C[C@@]1(O)[C@@H](CO)O[C@@H](n2ccc(N)nc2=O)[C@@H]1O[Si](C)(C)C(C)(C)C(C)C (as salt: trifluoroacetic acid salt) [Compound 13, 1-(2-O-Dimethylthexylsilyl-3-C-ethynyl-1-β-D-ribofuranosyl)cytosine trifluoroacetic acid salt]
melting point: 182 °C

C#C[C@@]1(O)[C@@H](CO[Si](c2ccccc2)(c2ccccc2)C(C)(C)C)O[C@@H](n2ccc(N)nc2=O)[C@@H]1O (hydrate or solvate)
melting point: 210 to 213 °C

C#C[C@@]1(O)[C@@H](CO[Si](C)(C)C(C)(C)C)O[C@@H](n2ccc(NC(=O)CCCCCC)nc2=O)[C@@H]1O [Compound 15, 1-[5-O-(tert-Butyldimethylsilyl)-3-C-ethynyl-β-D-ribofuranosyl]-4-N-heptanoylcytosine]
serum ECyd level (concentration in blood) [1]: particularly high concentration in blood
melting point: 134 to 137 °C

C#C[C@@]1(O)[C@@H](CO)O[C@@H](n2ccc(N)nc2=O)[C@@H]1O [ECyd, 3′-ethynylcytidine]
anti-tumor effect [3]: excellent anti-tumor effect more greatly than any of fluoropyrimidine-based drugs
Tumor growth inhibition rate IR (%) [2]: 46.6%

C#C[C@@]1(O)[C@@H](CO)O[C@@H](n2ccc(N)nc2=O)[C@@H]1O[Si](C)(C)C(C)(C)C(C)C [Compound 14, 1-(2-O-Dimethylthexylsilyl-3-C-ethynyl-1-β-D-ribofuranosyl)cytosine]
Tumor growth inhibition rate IR (%) [2]: 99.8%
serum ECyd level (concentration in blood) [1]: particularly high concentration in blood
melting point: 218 °C

C#C[C@@]1(O)[C@@H](CO[Si](C(C)C)(C(C)C)C(C)C)O[C@@H](n2ccc(N)nc2=O)[C@@H]1O [Compound 3, 1-[5-O-Triisopropylsilyl-3-C-ethynyl-β-D-ribofuranosyl]cytosine]
Tumor growth inhibition rate IR (%) [2]: 93.4%
serum ECyd level (concentration in blood) [1]: particularly high concentration in blood
melting point: > 219 °C (dec.)

C#C[C@@]1(O)[C@@H](CO)O[C@@H](n2ccc(N)nc2=O)[C@@H]1O[Si](C)(C)C(C)(C)C [Compound 9, 1-[2-O-(tert-Butyldimethylsilyl)-3-C-ethynyl-1-β-D-ribofuranosyl]cytosine]
Tumor growth inhibition rate IR (%) [2]: 99.6%
serum ECyd level (concentration in blood) [1]: particularly high concentration in blood

C#C[C@@]1(O)[C@@H](CO[Si](C)(C)C(C)(C)C)O[C@@H](n2ccc(N)nc2=O)[C@@H]1O [Compound 1, 1-[5-O-(tert-Butyldimethylsilyl)-3-C-ethynyl-β-D-ribofuranosyl]cytosine]
Tumor growth inhibition rate IR (%) [2]: 94.6%
serum ECyd level (concentration in blood) [1]: particularly high concentration in blood
melting point: 251 to 256 °C (dec.)

C#C[C@@]1(O)[C@@H](CO[Si](C)(C)C(C)(C)C(C)C)O[C@@H](n2ccc(N)nc2=O)[C@@H]1O[Si](C)(C)C(C)(C)C(C)C [Compound 12, 1-(2,5-bis-O-Dimethylthexylsilyl-3-C-ethynyl-1-β-D-ribofuranosyl)cytosine]
Tumor growth inhibition rate IR (%) [2]: 91.5%
serum ECyd level (concentration in blood) [1]: particularly high concentration in blood
melting point: 106 to 108 °C

C#C[C@@]1(O)[C@@H](CO[Si](C)(C)CCCCCCCC)O[C@@H](n2ccc(N)nc2=O)[C@@H]1O [Compound 4, 1-[5-O-(Dimethyl-n-octylsilyl)-3-C-ethynyl-β-D-ribofuranosyl]cytosine]
serum ECyd level (concentration in blood) [1]: particularly high concentration in blood
melting point: 175 to 177 °C (dec.)
